Results reported in US8702959B2, “System and method for detecting a substance in liquid” (priority 2009, dated 2014).

Columns and labels:
[1] = test system: E. coli reporter strain panel
Method: The AP activity was measured electrochemically at potential […] by making use of pAPP in a point assay after induction period. The determined SOS-induction factors for each concentration level are plotted against each other.
To increase the capabilities of the reporter cells as genotoxicity bioreporters, a series of knock-out mutations was introduced to the E. coli RFM443's genome. The genes that were selected to be deleted are genes affiliated with DNA repair mechanisms (Nucleotide Exicision Repair, uvrA; DNA Pol V, umuD) and a structural gene that can influence cell permeability (lipopolysaccharide, rfaE). […] The deletion mutations in uvrA and umuD were transferred by P1 transduction. […] From each gene deletion experiment, eight Km^R colonies were chosen and checked for the correct mutation structure by PCR using a combination of locus- and kanamycin-specific primers (Table 1). PCR fragments with the right size of both junctions were sent to sequencing. Sequences were indentified using BLAST program operating on the default options querying the NCBI nucleotide collection database. The construction of double or triple mutants was obtained by the elimination of the resistance using a helper plasmid expressing the FLP recombinase, which acts on the FRT (FLP recognition target) sites flanking the resistance gene. Using the methods described above, a set of mutated reporter strains was constructed as detailed in Table 2. Strains dedicated to harbor the phoA reporter gene were also engineered to contain a deletion in the chromosomal phoA gene to eliminate the possibility of native PhoA activity.

[2] = test system: Salmonella typhimurium TA1535 pSK1002 cells; experiment: Genotoxicity bio-detection of IQ with Salmonella typhimurium umuC'-'lacZ reporter, amperometry on micro-chip; assay type: cell-based
Method: Salmonella typhimurium TA1535 pSK1002 [Y. Oda et al., Mutat. Res. 147 (1985) 219] cells were used for the IQ bio-detection. The construction of the pSK1002 plasmid was reported in H. Shinagawa et al. Gene. 23 (1983) 167, which is hereby incorporated by reference in its entirety. The exposition of bacteria was done according to Reifferscheid et al. [Reifferscheid et al., Mutat. Res. 253 (1991) 215]. An over night culture of the bacteria was refreshed in 20 ml TGA-medium (1:10 dilution of bacteria) and grown for further 2 h (37° C., 150 rpm). Prior to exposition the optical density (λ=595 nm) of the bacterial culture was adjusted to 0.44 by dilution with TGA medium. […] The OD595 of the exposed mixture was measured after an incubation time of 2 h at 37° C. and 900 rpm in shaking conditions.
The activity of the reporter enzyme β-galactosidase in the induced bacteria was measured by making use of the substrate para-Aminophenyl β-D-galactopyranoside (pAPG, 0.5 mM final concentration, Sigma). Shortly after the addition of pAPG, aliquots of 3 μl were introduced into the electrochemical microchambers and a constant potential of 300 mV vs. Ag/AgCl was applied on the electrochemical chamber in order to quantify the enzymatically generated product pAP. The setup was connected in such a way that the output current was monitored (i.e. amperometry measurement).

[3] = test system: Escherichia coli RFM443/pBR2TTS cells harboring a sulA::phoA fusion; assay type: cell-based
Method: Escherichia coli RFM443/pBR2TTS cells harboring a sulA::phoA fusion were grown overnight in MOPS growth medium containing 0.1 mg/ml ampicillin with shaking conditions at 37° C. The overnight culture was diluted ×1/100, regrown to an optical density of 0.2 (600 nm). Finally NA (FW 254.22, Sigma) was added to a final concentration of 10 μg/ml. Following further incubation at various times of 0, 60, 90, or 120 minutes under similar conditions, aliquots of 3 μl were introduced into the electrochemical microchambers. Shortly after applying a constant potential of 300 mV vs. Ag/AgCl in the electrochemical chamber, the enzymatic substrate para-Aminophenyl phosphate (pAPP, MW 211.09, diagnoSwiss) was added reaching a concentration of 0.8 mg/ml.
Control samples were prepared with the addition of growth medium instead of NA or pAPP to the incubation stage in order to verify the influence of NA on the induction of the bacteria and pAPP on the generated bio-electrochemical response.

OO [H2O2, hydrogen peroxide]
response of the reporter to model genotoxicants ([1]; AP activity measured electrochemically at potential 0.3 mV with pAPP, point assay after induction, FIG. 14): responsive
response of the uvrA mutant reporter strain ([1]; uvrA mutant, FIG. 14): elevated response

Cn1c(N)nc2c3cccnc3ccc21 [IQ, 2-Amino-3-methylimidazo[4,5-f]quinoline]
dependence of the differential slope of the electrochemical current on concentration ([2]; IQ 5, 1.25, 0.31 μM activated with S9-fraction, 2 h, pAPG 0.5 mM, 300 mV vs. Ag/AgCl, FIG. 11A): more rapidly increasing electrochemical current characteristics
detection by the prototype biosensor ([2]; microfluidic whole cell prototype biosensor, genotoxic material): successfully detected
response of the reporter strain mutated in uvrA and rfaE genes ([1]; following metabolic activation with lyophilized liver S9 fraction, compared with umu-test reporter strain): responded

CCn1cc(C(=O)O)c(=O)c2ccc(C)nc21 [NA, Nalidixic acid]
response of the ΔrfaE reporter strains ([1]; ΔrfaE mutants, FIG. 14): respond to lower concentrations
chrono-amperometric response of E. coli bacteria in the presence of toxicant after pAPP was added ([3]; NA 10 μg/ml, 1 hr incubation, pAPP 0.8 mg/ml, 300 mV vs. Ag/AgCl, FIG. 10A): increasing electrochemical current
electrochemical current of induced bacteria compared with non-induced bacteria, pAPP added to both ([3]; NA 10 μg/ml, 1 hr incubation, pAPP 0.8 mg/ml, FIG. 10A): more rapidly increasing electrochemical current than non-induced bacteria
effect of induction time on the slope of the detected electrochemical current ([3]; NA 10 μg/ml, induction 0, 60, 90 or 120 minutes, FIGS. 10B-C): For longer induction times the current increased more rapidly
detection by the prototype biosensor ([3]; microfluidic whole cell prototype biosensor, model toxicant): successfully detected
